Source: US11499981B2, “Methods of identifying modulators of SAMTOR-GATOR1 interaction and use of same to modulate mTORC1” (Whitehead Institute for Biomedical Research, priority 2017, dated 2022)

Tests used:
human FLAG-SAMTOR = target: T1, human FLAG-SAMTOR (Homo sapiens, UniProt Q1RMZ1); assay: Equilibrium [3H]SAM binding assay and competition binding assay with purified FLAG-SAMTOR
T1 construct: made in house; host or cells: HEK-293F suspension cells, transient transfection; anti-FLAG IP, FLAG-peptide elution, size-exclusion chromatography
T1 sequence (Q1RMZ1 1-405): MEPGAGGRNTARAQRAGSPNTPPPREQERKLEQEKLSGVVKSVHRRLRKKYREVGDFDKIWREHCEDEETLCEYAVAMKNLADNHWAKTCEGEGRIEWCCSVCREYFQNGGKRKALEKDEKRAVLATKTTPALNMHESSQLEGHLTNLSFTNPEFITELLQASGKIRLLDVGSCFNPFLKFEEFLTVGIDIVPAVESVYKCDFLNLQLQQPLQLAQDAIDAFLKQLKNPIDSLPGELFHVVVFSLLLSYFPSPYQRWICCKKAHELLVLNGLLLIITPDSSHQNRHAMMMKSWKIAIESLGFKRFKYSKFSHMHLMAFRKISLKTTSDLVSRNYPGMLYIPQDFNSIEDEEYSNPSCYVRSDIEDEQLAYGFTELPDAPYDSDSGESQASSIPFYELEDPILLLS
Protocol: For radiolabelled SAM binding assays using FLAG-tagged wild-type SAMTOR (FIG. 3B), suspension HEK-293F cells were seeded at 2.5 million cells/ml, and the pRK5-FLAG-SAMTOR cDNA was transfected using polyethylenimine. 72-96 hours after transfection, cells were rinsed one time in cold PBS and lysed in 1% Triton lysis buffer (1% Triton, 40 mM Hepes pH 7.4, 2.5 mM MgCl2 and 1 tablet of EDTA-free protease inhibitor [Roche] per 25 ml buffer). Following anti-FLAG immunoprecipitation, the beads were washed 4 times with lysis buffer containing 500 mM NaCl and the protein was eluted in FLAG Elution Buffer (40 mM Hepes pH 7.4, 150 mM NaCl, 2.5 mM MgCl2 and 0.5 mg/ml FLAG peptide) for 1 hour at 4° C. […] Each sample was mixed well and then 15 μl aliquots were separately quantified using a TriCarb scintillation counter (Perkin Elmer). This process was repeated in pairs for each sample, to ensure similar incubation and wash times for all samples analyzed across different experiments. The affinities for SAM and SAH of human FLAG-SAMTOR were determined by first normalizing the bound [^3H]-labeled SAM concentrations across three separate binding assays performed with varying amounts of cold SAM or SAH. […]

[1] = target: T2, SAMTOR-GATOR1-KICSTOR interaction in HEK-293T cells (Homo sapiens, UniProt Q1RMZ1); assay: Co-immunoprecipitation of GATOR1 with HA-SAMTOR from methionine-starved and restimulated cells; type: cell-based; conditions: HEK-293T starved of methionine 2 hours
T2 construct: expressed in transfected cells; host or cells: HEK-293T cells transiently transfected with HA-SAMTOR in pRK5 (25 ng)
T2 sequence (Q1RMZ1 1-405): T1 sequence (Q1RMZ1 1-405)
Protocol: Cell volumes were determined by Coulter counter and used to calculate whole cell concentrations. […] HA-immunoprecipitates and cell lysates were analyzed by immunoblotting for the levels of the indicated proteins. […] Cell lysates were analyzed by immunoblotting for the phosphorylation states and the levels of the indicated proteins. […] Wild-type or SAMTOR-deficient HEK-293T cells were starved for the indicated amino acid for 2 hours. Cell lysates were analyzed by immunoblotting for the phosphorylation states and the levels of the indicated proteins. […] SAMTOR-deficient or control HEK-293T cells were treated as indicated for 2 hours prior to processing for immunofluorescence detection of mTOR and the lysosomal marker LAMP2. […] FLAG-immunoprecipitates and cell lysates were analyzed by immunoblotting for the phosphorylation states and the levels of the indicated proteins. […] Cell lysates were analyzed by immunoblotting for the phosphorylation states and the levels of the indicated proteins. […] Cell lysates were analyzed by immunoblotting for the phosphorylation states and the levels of the indicated proteins.
For anti-FLAG immunoprecipitations, anti-FLAG M2 Affinity Gel (SIGMA A2220) was washed with lysis buffer three times then resuspended to a ratio of 50:50 affinity gel to lysis buffer. […] Denatured samples were resolved by 8%-12% SDS-PAGE, and analyzed by immunoblotting.

mTORC1 = mTORC1 signaling in methionine-starved cells (immunoblotting of mTORC1 substrate phosphorylation); type: cell-based, human; conditions: for activation of mTORC1 after loss of MAT2A: MAT2A dox-off HEK-293T cells, 30 ng/mL doxycycline for 50 hours
Protocol: Cell volumes were determined by Coulter counter and used to calculate whole cell concentrations. […] HA-immunoprecipitates and cell lysates were analyzed by immunoblotting for the levels of the indicated proteins. […] Cell lysates were analyzed by immunoblotting for the phosphorylation states and the levels of the indicated proteins. […] Wild-type or SAMTOR-deficient HEK-293T cells were starved for the indicated amino acid for 2 hours. Cell lysates were analyzed by immunoblotting for the phosphorylation states and the levels of the indicated proteins. […] SAMTOR-deficient or control HEK-293T cells were treated as indicated for 2 hours prior to processing for immunofluorescence detection of mTOR and the lysosomal marker LAMP2. In all images, insets represent selected fields magnified 3.07× as well as their overlays. Scale bar represents 10 μm. […] SAMTOR-null cells were co-transfected with a cDNA for FLAG-S6K1 along with the indicated HA-tagged cDNAs and cells were treated as in (FIG. 4C) prior to preparing lysates and FLAG-immunoprecipitates. FLAG-immunoprecipitates and cell lysates were analyzed by immunoblotting for the phosphorylation states and the levels of the indicated proteins. […] S2R+ cells were transfected with dsRNAs targeting the indicated mRNAs and starved for 1 hour for the indicated amino acid. Cell lysates were analyzed by immunoblotting for the phosphorylation states and the levels of the indicated proteins. […] MAT2A dox-off HEK-293T cells were treated with 30 ng/mL doxycycline for 50 hours prior to starving them as in (FIG. 4C). Cell lysates were analyzed by immunoblotting for the phosphorylation states and the levels of the indicated proteins.
Cells were rinsed with cold PBS and lysed in lysis buffer (1% Triton, 10 mM β-glycerol phosphate, 10 mM pyrophosphate, 40 mM Hepes pH 7.4, 2.5 mM MgCl2 and 1 tablet of EDTA-free protease inhibitor [Roche] (per 25 ml buffer)). […] Cell lysate samples were prepared by addition of 5× sample buffer (0.242 M Tris, 10% SDS, 25% glycerol, 0.5 M DTT, and bromophenol blue), resolved by 8%-16% SDS-PAGE, and analyzed by immunoblotting.

[2] = target: T3, SAMTOR-GATOR1-KICSTOR complex (Homo sapiens, UniProt Q1RMZ1); assay: In vitro GATOR1-SAMTOR dissociation assay (immunopurified complex, immunoblotting); type: biochemical; conditions: for disruption of the interaction between SAMTOR and GATOR1 (FIG. 3D): 100 μM, added to FLAG-Depdc5 immunoprecipitates; for disruption of the interaction of SAMTOR with GATOR1-KICSTOR: added directly to the immunopurified complex kept at 4° C.
T3 construct: FLAG-immunoprecipitates were prepared from the endogenously FLAG-tagged Depdc5 HEK-293T cells; endogenous in cells; host or cells: HEK-293T cells with endogenously FLAG-tagged Depdc5; anti-FLAG immunoprecipitate on beads
T3 sequence (Q1RMZ1 1-405): T1 sequence (Q1RMZ1 1-405)
Protocol: HEK-293T cells stably expressing endogenous FLAG-tagged Depdc5 were lysed and subjected to anti-FLAG immunoprecipitations as described above. The GATOR1-SAMTOR complexes immobilized on the FLAG beads were washed twice in lysis buffer with 250 mM NaCl, and then incubated for 25 minutes in 0.3 ml of cytosolic buffer (0.1% Triton, 40 mM HEPES pH7.4, 10 mM NaCl, 150 mM KCl, 2.5 mM MgCl2) with the indicated concentrations of SAM or SAH in the cold. The amount of GATOR1, SAMTOR, GATOR2, and KICSTOR that remained bound was assayed by SDS-PAGE and immunoblotting as described previously.

[3] = target: T4, human FLAG-SAMTOR (SAMTOR, C7orf60; wild-type, FLAG-tagged, expressed in HEK-293F cells) (Homo sapiens, UniProt Q1RMZ1); assay: Radiolabelled SAM binding assay: competition of unlabeled SAH with [3H]SAM for purified FLAG-SAMTOR (FIG. 3B); conditions: 5 μM [3H]SAM competed with unlabeled SAH; 5 μg purified wild-type FLAG-SAMTOR on anti-FLAG beads, 1 h on ice, pH 7.4; Ki=IC50/(1+([3H]SAM)/Kd)
T4 construct: made in house; host or cells: HEK-293F (suspension), transient transfection of pRK5-FLAG-SAMTOR; anti-FLAG purification and size-exclusion chromatography
T4 sequence (Q1RMZ1 1-405): T1 sequence (Q1RMZ1 1-405)
Excerpt: FIGS. 3A-3G depict S-adenosylmethionine binds SAMTOR to disrupt its interaction with GATOR1 and KICSTOR. FIG. 3A provides a schematic of the human SAMTOR protein indicating the Class I Rossmann fold methyltransferase domain. Shown is an alignment of partial sequences of this domain from SAMTOR in indicated species. Amino acid positions are colored from white to blue in order of increasing sequence similarity. Orange dots denote the G172 and D190 residues of human SAMTOR. […] FLAG-SAMTOR protein prepared from HEK-293F cells transiently expressing the FLAG-SAMTOR cDNA was further purified by size-exclusion chromatography. The protein was analyzed by SDS-PAGE followed by Coomassie blue staining. Binding assays were performed with purified FLAG-SAMTOR incubated with 5 μM [^3H]SAM and indicated concentrations of unlabeled SAM or SAH. Values for each point are mean±SD of three technical replicates from one representative experiment. The experiment was performed twice. […] FLAG-immunoprecipitates and cell lysates were analyzed by immunoblotting for the levels of the indicated proteins. […] The experiment was performed and analyzed as in (FIG. 3C). […] HA-immunoprecipitates and cell lysates were analyzed as (FIG. 3C). […] FLAG-immunoprecipitates and cell lysates were analyzed by immunoblotting for the phosphorylation states and levels of the indicated proteins. […]

| binding to SAMTOR in competition binding assay (human FLAG-SAMTOR; 5 μM [3H]SAM with unlabeled competitor) | Ki [3] [µM] | SMILES | Kd (human FLAG-SAMTOR; 5 μM [3H]SAM with unlabeled SAM, read-out: dissociation constant of SAM for SAMTOR) [µM] | SAMTOR-GATOR1-KICSTOR interaction in cells after re-addition ([1]; restimulated 20 minutes with 1 mM SAM) | activation of mTORC1 after loss of MAT2A (mTORC1) | mTORC1 signaling after addition to methionine-starved cells (mTORC1; methionine-starved HEK-293T cells (FIG. 4H)) | disruption of the interaction between SAMTOR and GATOR1 (FIG. 3D) [2] | disruption of the interaction of SAMTOR with GATOR1-KICSTOR [2] | SAMTOR-GATOR1-KICSTOR interaction in cells after re-addition ([1]; restimulated 20 minutes with 100 μM methionine) |
| --- | --- | --- | --- | --- | --- | --- | --- | --- | --- |
|  |  | C[S+](CC[C@H](N)C(=O)[O-])C[C@H]1O[C@@H](n2cnc3c(N)ncnc32)[C@H](O)[C@@H]1O (stereo partly drawn) [SAM, S-adenosylmethionine] | ~7 | reduced the interaction to baseline levels | largely intact | reactivated mTORC1 signaling | disrupt the interaction | disrupted the interaction |  |
|  |  | CSCC[C@H](N)C(=O)O [methionine] |  |  | greatly attenuated |  |  |  | reduced the interaction to baseline levels |
| can also bind | ~4.6 | Nc1ncnc2c1ncn2[C@@H]1O[C@H](CSCC[C@H](N)C(=O)O)[C@@H](O)[C@H]1O [SAH, S-adenosylhomocysteine] |  |  |  |  | disrupt the interaction | disrupted the interaction |  |
